Laboratory results taken from the NIST ThermoML archive (doi:10.1021/acs.jced.9b00415).
Numbers after ± are expanded uncertainties.

Details: for viscosity / mass density: 102 kPa, Liquid; for viscosity: Concentric cylinders viscometry; for mass density: Vibrating tube method

CCCCn1cc[n+](C)c1.O=[N+]([O-])[O-] [1-butyl-3-methylimidazolium nitrate]
viscosity (303.15 K): 148.1 ± 15 mPa·s
mass density (303.15 K): 1151.9 ± 2.8 kg/m3
viscosity (308.15 K): 112.9 ± 11 mPa·s
mass density (308.15 K): 1148.7 ± 2.8 kg/m3
viscosity (313.15 K): 87.87 ± 8.9 mPa·s
mass density (313.15 K): 1145.5 ± 2.8 kg/m3
viscosity (318.15 K): 69.65 ± 7 mPa·s
mass density (318.15 K): 1142.3 ± 2.8 kg/m3
viscosity (323.15 K): 56.17 ± 5.7 mPa·s
mass density (323.15 K): 1139.2 ± 2.8 kg/m3
viscosity (328.15 K): 45.97 ± 4.6 mPa·s
mass density (328.15 K): 1136.1 ± 2.8 kg/m3
viscosity (333.15 K): 38.11 ± 3.8 mPa·s
mass density (333.15 K): 1133.1 ± 2.8 kg/m3
viscosity (338.15 K): 32.05 ± 3.2 mPa·s
mass density (338.15 K): 1130 ± 2.7 kg/m3
viscosity (343.15 K): 27.29 ± 2.8 mPa·s
mass density (343.15 K): 1127 ± 2.7 kg/m3
viscosity (348.15 K): 23.4 ± 2.4 mPa·s
mass density (348.15 K): 1123.9 ± 2.7 kg/m3
viscosity (353.15 K): 20.29 ± 2.1 mPa·s
mass density (353.15 K): 1120.9 ± 2.7 kg/m3
viscosity (358.15 K): 17.73 ± 1.8 mPa·s
mass density (358.15 K): 1117.9 ± 2.7 kg/m3
viscosity (363.15 K): 15.61 ± 1.6 mPa·s
mass density (363.15 K): 1115 ± 2.7 kg/m3
Triple point temperature (Crystal 1, DSC): 308 ± 6 K
Triple point temperature (Crystal 4, DSC): 279 ± 6 K

CCCCn1cc[n+](C)c1.[Cl-] [1-butyl-3-methylimidazolium chloride]
viscosity (343.15 K): 256.7 ± 26 mPa·s
mass density (343.15 K): 1057.5 ± 2.9 kg/m3
viscosity (348.15 K): 189.4 ± 19 mPa·s
mass density (348.15 K): 1054.8 ± 2.9 kg/m3
viscosity (353.15 K): 142.7 ± 15 mPa·s
mass density (353.15 K): 1052 ± 2.8 kg/m3
viscosity (358.15 K): 109.6 ± 11 mPa·s
mass density (358.15 K): 1049.3 ± 2.8 kg/m3
viscosity (363.15 K): 85.65 ± 8.7 mPa·s
mass density (363.15 K): 1046.5 ± 2.8 kg/m3
Triple point temperature (Crystal, DSC): 342 ± 6 K
Glass transition temperature (Glass, DSC): -42 ± 6 °C

CCCCn1cc[n+](C)c1.CS(=O)(=O)[O-] [1-butyl-3-methylimidazolium methanesulfonate]
viscosity (348.15 K): 36.51 ± 3.7 mPa·s
mass density (348.15 K): 1139.4 ± 2.5 kg/m3
viscosity (353.15 K): 30.57 ± 3.1 mPa·s
mass density (353.15 K): 1136.3 ± 2.5 kg/m3
viscosity (358.15 K): 25.89 ± 2.6 mPa·s
mass density (358.15 K): 1133.1 ± 2.5 kg/m3
viscosity (363.15 K): 22.16 ± 2.2 mPa·s
mass density (363.15 K): 1130 ± 2.5 kg/m3
Triple point temperature (Crystal, DSC): 348 ± 6 K
